One test concerns the target αβ (1:1) GluClRs (Haemonchus contortus, UniProt O46124+P91730). As to the kind of experiment: Two-electrode voltage clamp in oocytes, αβ (1:1) GluClRs. The class given is cell-based, H. contortus. As for the experimental part:
(§1) cDNAs encoding the α (avr-14b) (pcDNA 3.1+) or β (pUNIV) GluClR subunits of H. contortus were nuclear injected into oocytes (NASCO, WI USA) or transfected into HEK293AD cells (CellBank Australia) using a calcium phosphate-DNA co-precipitate method. Synapse formation between neurons and HEK293 cells was promoted by co-transfecting neuroligin 2A or 1B and the cDNA encoding CD4 surface antigen was also added to the transfection mixture so as to identify transfected cells. The oocytes and HEK cells were used for experiments 2–3 days after the introduction of the cDNAs. All experiments were done at room temperature (22 ± 1°C).
(§2) Xenopus laevis oocytes were harvested by surgical incision. The oocytes were then defolliculated with 1.5 mg/ml collagenase for 2 hours. Free oocytes were rinsed with calcium-free OR-2 solution containing (in mM) 82.5 NaCl, 2 KCl, 1 MgCl2, 5 HEPES, pH 7.4 and mature stage V or VI oocytes were isolated for experiments. The DNAs coding for α and β subunits were nuclear injected into the oocytes using a Nanoliter 2000 microinjector (WPI Inc) at a ratio of (α:β), 1:0, 0:1, 1:1 and 1:50. The total amount of injected DNA in all combinations was 400 ng ml^−1, including the 1:50 (α:β) combination (8 ng of DNA encoding the α and 392 ng of DNA encoding β subunits). Injected oocytes were incubated in ND96 storage solution (in mM) 96 NaCl, 2 KCl, 1 MgCl2.6H2O, 1.8 CaCl2, 5 HEPES, 50 μg ml^−1 gentamicin, 2.5 sodium pyruvate, 0.5 theophylline, pH 7.4 at 16°C for 2–3 days before experiment.
(§3) For the two-electrode voltage clamp recordings, each oocyte was secured in a cell bath that was continually perfused with ND96 recording solution (ND96 storage solution without pyruvate, theophylline and gentamicin). […] The two microelectrodes contained 3 M KCl and had resistances of 0.2–2 MΩ. Recordings were done using Clampex 10.2 software (Molecular Devices) at a clamped voltage of −40 mV. Currents were low-pass filtered at 200 Hz, sampled at 2 kHz using a Gene Clamp 500B amplifier and digitised by a Digidata 1440A interface. The IVM (IVM B1a) concentration-response experiments were standardised by using an application protocol that consisted of applying increasing concentrations of IVM for, respectively, 3 min, 3 min, 3 min, 2 min, 1 min, 1 min and 0.5 min.
Group data were analysed in SigmaPlot 13.0 using one-way ANOVAs, where p < 0.05 was taken as the significance threshold and expressed as mean ± SEM. Tests for normally distributed data are built into the SigmaPlot software. Confocal images were captured and analysed with Zen 2012 SP2 (Zeiss) software. Oocyte concentration-response data were fit to a Hill equation to obtain an EC50 and Hill co-efficient for each oocyte recording. […] Single channel recordings were analysed in QuB software. […]

A further test concerns the target αβ (1:50) GluClRs (Haemonchus contortus, UniProt O46124+P91730). As to the kind of experiment: Two-electrode voltage clamp in oocytes, αβ (1:50) GluClRs. The class given is cell-based, H. contortus. As for the experimental part:
as §1, §2, §3
Group data were analysed in SigmaPlot 13.0 using one-way ANOVAs, where p < 0.05 was taken as the significance threshold and expressed as mean ± SEM. Tests for normally distributed data are built into the SigmaPlot software. Confocal images were captured and analysed with Zen 2012 SP2 (Zeiss) software. Oocyte concentration-response data were fit to a Hill equation to obtain an EC50 and Hill co-efficient for each oocyte recording. These parameters were then averaged across multiple oocyte experiments of the same type. Single channel recordings were analysed in QuB software. […] The selected critical times eliminated periods of receptor desensitisation while retaining singe receptor active periods. Mean active period duration and intra-activation open probability was estimated from each patch. Group means were obtained by averaging across multiple patches for each recording condition.
For orientation: Two-electrode voltage clamp holds a large cell at a set potential and records current.

Test [1] relates to homomeric α (avr-14b) GluClRs. The settings on record: cited from earlier work.
The mark [2] stands for this setting: read-out: maximal response, % of saturating glutamate response.

αβ (1:1) GluClRs, sequence (P91730 19-432): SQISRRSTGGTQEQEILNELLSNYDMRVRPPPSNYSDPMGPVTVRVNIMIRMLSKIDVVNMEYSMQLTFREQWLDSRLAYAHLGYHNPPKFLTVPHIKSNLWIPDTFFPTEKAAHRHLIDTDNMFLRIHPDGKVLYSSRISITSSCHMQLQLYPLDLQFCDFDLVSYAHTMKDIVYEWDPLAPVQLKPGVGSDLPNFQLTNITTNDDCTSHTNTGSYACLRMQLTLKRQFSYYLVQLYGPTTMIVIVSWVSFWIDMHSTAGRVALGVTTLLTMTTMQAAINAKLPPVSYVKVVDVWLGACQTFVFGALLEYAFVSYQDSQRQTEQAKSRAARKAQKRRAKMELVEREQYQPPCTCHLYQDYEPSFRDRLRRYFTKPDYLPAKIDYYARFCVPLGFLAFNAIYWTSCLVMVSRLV
αβ (1:1) GluClRs, sequence (O46124 entry or part of it): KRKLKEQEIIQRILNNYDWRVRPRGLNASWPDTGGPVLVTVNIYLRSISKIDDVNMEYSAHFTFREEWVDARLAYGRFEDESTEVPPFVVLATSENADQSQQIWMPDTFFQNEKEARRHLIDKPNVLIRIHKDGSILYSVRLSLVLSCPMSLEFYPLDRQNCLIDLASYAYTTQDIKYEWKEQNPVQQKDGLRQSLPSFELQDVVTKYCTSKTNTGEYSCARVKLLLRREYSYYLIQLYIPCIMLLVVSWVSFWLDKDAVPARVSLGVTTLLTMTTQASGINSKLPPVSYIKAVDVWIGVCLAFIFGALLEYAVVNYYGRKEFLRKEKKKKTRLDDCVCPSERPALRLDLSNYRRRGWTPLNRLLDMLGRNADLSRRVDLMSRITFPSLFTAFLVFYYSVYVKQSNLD
αβ (1:50) GluClRs, sequence (O46124 entry or part of it): as above
αβ (1:50) GluClRs, sequence (P91730 19-432): as the sequence (P91730 19-432) above

Broadly, the EC50 is the midpoint of the concentration-response curve. Take `CC[C@H](C)[C@H]1O[C@]2(CC[C@@H]1C)C[C@@H]1C[C@@H](C/C=C(\C)[C@@H](O[C@H]3C[C@H](OC)[C@@H](O[C@H]4C[C@H](OC)[C@@H](O)[C@H](C)O4)[C@H](C)O3)[C@@H](C)/C=C/C=C3\CO[C@@H]4[C@H](O)C(C)=C[C@@H](C(=O)O1)[C@]34O)O2` [IVM, Ivermectin]: the EC50 on αβ (1:1) GluClRs (EC50, oocytes, cDNA injection ratio α:β 1:1, −40 mV) stood at 86 ± 14 nM; at αβ (1:50) GluClRs (EC50, oocytes, cDNA injection ratio α:β 1:50, −40 mV), 141 ± 11 nM. For the same molecule, the Hill co-efficient was 1.0 ± 0.1 on αβ (1:1) GluClRs (oocytes, α:β 1:1, −40 mV) and 1.6 ± 0.1 on αβ (1:50) GluClRs (oocytes, α:β 1:50, −40 mV). Further, the Emax at αβ (1:1) GluClRs (setting [2]) amounted to 26%; at αβ (1:50) GluClRs (setting [2]) it was 33%. For the same molecule, the “differential efficacy between α and αβ (1:50) GluClRs” value on αβ (1:50) GluClRs (30 nM, α versus αβ (1:50)) is on record as “maintained”. For the same molecule, the “time over which single receptor active periods increase in duration after exposure” value in test [1] was 1 to 2 min.

The record behind these values is paper PMC6368337, “GluClR-mediated inhibitory postsynaptic currents reveal targets for ivermectin and potential mechanisms of ivermectin resistance” (PLoS Pathogens, 2019).
